# Measured values as given in US12545640B2, “Substituted 6,7-dihydro-5H-benzo[7]annulene compounds, processes for their preparation and therapeutic uses thereof” (SANOFI, priority 2019, dated 2026).
# Target: T1, ERα (Homo sapiens, UniProt P03372)
# T1 construct: host or cells: MCF7 cells
# T1 sequence (P03372 1-595): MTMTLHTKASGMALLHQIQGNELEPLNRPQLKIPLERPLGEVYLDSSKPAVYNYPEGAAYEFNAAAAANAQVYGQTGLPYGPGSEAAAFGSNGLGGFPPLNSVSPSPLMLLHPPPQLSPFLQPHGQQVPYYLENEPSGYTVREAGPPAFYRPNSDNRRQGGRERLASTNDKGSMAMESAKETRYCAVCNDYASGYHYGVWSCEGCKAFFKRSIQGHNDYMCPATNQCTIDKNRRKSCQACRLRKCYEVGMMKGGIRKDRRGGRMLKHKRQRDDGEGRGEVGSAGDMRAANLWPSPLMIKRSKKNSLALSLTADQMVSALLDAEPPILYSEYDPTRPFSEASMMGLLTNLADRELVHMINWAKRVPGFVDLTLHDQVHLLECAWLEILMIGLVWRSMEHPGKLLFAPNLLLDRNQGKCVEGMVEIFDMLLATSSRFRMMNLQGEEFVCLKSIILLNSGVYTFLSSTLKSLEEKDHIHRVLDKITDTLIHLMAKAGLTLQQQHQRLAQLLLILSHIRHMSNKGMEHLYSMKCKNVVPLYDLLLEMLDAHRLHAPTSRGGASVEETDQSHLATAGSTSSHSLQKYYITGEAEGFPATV
# Experiment: Estrogen receptor degradation activity: breast cancer cell ERα in cell western assay (MCF7 cells)
# Format: cell-based
# Details: 4 hours, final concentrations ranging from 0.3-0.0000018 μM, relative to fulvestrant 0.1 μM positive control
# Experimental: Test: Estrogen Receptor Degradation Activity
# Said test involves measuring the in vitro degradation activity of the compounds of the invention.
# The measurements of the degradation activities were made using a breast cancer cell ERα in cell western assay as described hereunder.
# MCF7 cells (ATCC) were seeded in 384 wells microplate (collagen coated) at a concentration of 10000 cells/30 μL, per well in red phenol free MEM alpha medium (invitrogen) containing 5% charcoal dextran striped FBS. The following day, 9 points serial 1:5 dilution of each compound was added to the cells in 2.5 μL at final concentrations ranging either from 3-0.000018 μM (column «% Degradation at 3 μM in table 2) or from 0.3-0.0000018 μM (column «% Degradation at 0.3 μM in table 2), or 0.1 μM for fulvestrant (using as positive control). At 4 hours post compound addition the cells were fixed by adding 25 μL of formalin (final concentration 5% formalin containing 0.1% triton) for 10 minutes at room temperature and then washed twice with PBS. Then, 50 μL of LI-COR blocking buffer containing 0.1% Triton was added to plate for 30 minutes at room temperature. LI-COR blocking buffer was removed and cells were incubated overnight at cold room with 50 μL anti-ER rabbit monoclonal antibody (Thermo scientific MA1-39540) diluted at 1:1000 in LI-COR blocking buffer containing 0.1% tween-20. Wells which were treated with blocking buffer but no antibody were used as background control. Wells were washed twice with PBS (0.1% tween-20) and incubated at 37° C. for 60 minutes in LI-COR (0.1% tween-20) containing goat anti-rabbit antibody Alexa 488 (1:1000) and Syto-64 a DNA dye ([…]). Cells were then washed 3 times in PBS and scanned in ACUMEN explorer (TTP-Labtech). Integrated intensities in the green fluorescence and red fluorescence were measured to determine the levels of ERα and DNA respectively.
row,% Degradation At 0.3 μM [%],Structure (SMILES)
1,75,"CCOC(=O)C(=O)Nc1ccc2c(c1)CCCC(c1ccc(Cl)cc1Cl)=C2c1ccc(O[C@H]2CCN(CCCF)C2)cc1 [Example 76, ethyl (S)-2-((8-(2,4-dichlorophenyl)-9-(4-((1-(3-fluoropropyl)pyrrolidin-3-yl)oxy)phenyl)-6,7-dihydro-5H-benzo[7]annulen-3-yl)amino)-2-oxoacetate]"
2,90,"CCOc1ccc(C2=C(c3ccc(O[C@H]4CCN(CCCF)C4)cc3)c3ccc(C#N)cc3CCC2)c(F)n1 [Example 80, (S)-8-(6-ethoxy-2-fluoropyridin-3-yl)-9-(4-((1-(3-fluoropropyl)pyrrolidin-3-yl)oxy)phenyl)-6,7-dihydro-5H-benzo[7]annulene-3-carbonitrile 2,2,2-trifluoroacetate]"
3,88,"O=C(O)c1ccccc1-c1ccc2c(c1)CCCC(c1ccc(Cl)cc1Cl)=C2c1ccc(O[C@H]2CCN(CCCF)C2)cc1 [Example 86, (S)-2-(8-(2,4-dichlorophenyl)-9-(4-((1-(3-fluoropropyl)pyrrolidin-3-yl)oxy)phenyl)-6,7-dihydro-5H-benzo[7]annulen-3-yl)benzoic acid]"
4,67,"NC(=O)c1ccc(-c2ccc3c(c2)CCCC(c2ccc(Cl)cc2Cl)=C3c2ccc(O[C@H]3CCN(CCCF)C3)cc2)cc1 [Example 81, (S)-4-(8-(2,4-dichlorophenyl)-9-(4-((1-(3-fluoropropyl)pyrrolidin-3-yl)oxy)phenyl)-6,7-dihydro-5H-benzo[7]annulen-3-yl)benzamide]"
5,89,"Nc1cc(-c2ccc3c(c2)CCCC(c2ccc(Cl)cc2Cl)=C3c2ccc(O[C@H]3CCN(CCCF)C3)cc2)n[nH]1 [Example 73, (S)-3-(8-(2,4-dichlorophenyl)-9-(4-((1-(3-fluoropropyl)pyrrolidin-3-yl)oxy)phenyl)-6,7-dihydro-5H-benzo[7]annulen-3-yl)-1H-pyrazol-5-amine]"
6,63,"COC(=O)c1ccccc1-c1ccc2c(c1)CCCC(c1ccc(Cl)cc1Cl)=C2c1ccc(O[C@H]2CCN(CCCF)C2)cc1 [Example 83, methyl (S)-2-(8-(2,4-dichlorophenyl)-9-(4-((1-(3-fluoropropyl)pyrrolidin-3-yl)oxy)phenyl)-6,7-dihydro-5H-benzo[7]annulen-3-yl)benzoate]"

# Same assay, conditions: 4 hours, final concentrations ranging from 3-0.000018 μM, relative to fulvestrant 0.1 μM positive control
row,% Degradation At 3 μM [%],Structure (SMILES)
1,81,"FCCCN1CC[C@H](Oc2ccc(C3=C(c4ccc(Cl)cc4Cl)CCCc4cc(-c5cc[nH]n5)ccc43)cc2)C1 [Example 51, (S)-3-(8-(2,4-dichlorophenyl)-9-(4-((1-(3-fluoropropyl)pyrrolidin-3-yl)oxy)phenyl)-6,7-dihydro-5H-benzo[7]annulen-3-yl)-1H-pyrazole]"
2,66,"FCCCN1CC[C@H](Oc2ccc(C3=C(c4ccc(Cl)cc4Cl)CCCc4cc(-c5noc(=S)[nH]5)ccc43)cc2)C1 [Example 34, (S)-3-(8-(2,4-dichlorophenyl)-9-(4-((1-(3-fluoropropyl)pyrrolidin-3-yl)oxy)phenyl)-6,7-dihydro-5H-benzo[7]annulen-3-yl)-1,2,4-oxadiazole-5(4H)-thione]"
3,86,"CONC(=O)c1ccc2c(c1)CCCC(c1ccc(Cl)cc1Cl)=C2c1ccc(O[C@H]2CCN(CCCF)C2)cc1 [Example 19, (S)-8-(2,4-dichlorophenyl)-9-(4-((1-(3-fluoropropyl)pyrrolidin-3-yl)oxy)phenyl)-N-methoxy-6,7-dihydro-5H-benzo[7]annulene-3-carboxamide]"
4,70,"CS(=O)(=O)Nc1ccc2c(c1)CCCC(c1ccc(Cl)cc1Cl)=C2c1ccc(O[C@H]2CCN(CCCF)C2)cc1 [Example 30, (S)—N-(8-(2,4-dichlorophenyl)-9-(4-((1-(3-fluoropropyl)pyrrolidin-3-yl)oxy)phenyl)-6,7-dihydro-5H-benzo[7]annulen-3-yl)methane sulfonamide]"
5,98,"O=c1[nH]c(-c2ccc3c(c2)CCCC(c2ccc(Cl)cc2Cl)=C3c2ccc(O[C@H]3CCN(CCCF)C3)cc2)ns1 [Example 37, (S)-3-(8-(2,4-dichlorophenyl)-9-(4-((1-(3-fluoropropyl)pyrrolidin-3-yl)oxy)phenyl)-6,7-dihydro-5H-benzo[7]annulen-3-yl)-1,2,4-thiadiazol-5(4H)-one]"
6,65,"COC(=O)Nc1ccc2c(c1)CCCC(c1ccc(Cl)cc1Cl)=C2c1ccc(O[C@H]2CCN(CCCF)C2)cc1 [Example 25, Methyl (S)-(8-(2,4-dichlorophenyl)-9-(4-((1-(3-fluoropropyl)pyrrolidin-3-yl)oxy)phenyl)-6,7-dihydro-5H-benzo[7]annulen-3-yl)carbamate]"
7,77,"O=C1CCCN1c1ccc2c(c1)CCCC(c1ccc(Cl)cc1Cl)=C2c1ccc(O[C@H]2CCN(CCCF)C2)cc1 [Example 58, (S)-1-(8-(2,4-dichlorophenyl)-9-(4-((1-(3-fluoropropyl)pyrrolidin-3-yl)oxy)phenyl)-6,7-dihydro-5H-benzo[7]annulen-3-yl)pyrrolidin-2-one]"
8,95,"CC(=N)Nc1ccc2c(c1)CCCC(c1ccc(Cl)cc1Cl)=C2c1ccc(O[C@H]2CCN(CCCF)C2)cc1 [Example 46, (S)—N-(8-(2,4-dichlorophenyl)-9-(4-((1-(3-fluoropropyl)pyrrolidin-3-yl)oxy)phenyl)-6,7-dihydro-5H-benzo[7]annulen-3-yl)acetimidamide]"
9,93,"O=c1c(O)c(Nc2ccc3c(c2)CCCC(c2ccc(Cl)cc2Cl)=C3c2ccc(O[C@H]3CCN(CCCF)C3)cc2)c1=O [Example 36, (S)-3-((8-(2,4-dichlorophenyl)-9-(4-((1-(3-fluoropropyl)pyrrolidin-3-yl)oxy)phenyl)-6,7-dihydro-5H-benzo[7]annulen-3-yl)amino)-4-hydroxycyclobut-3-ene-1,2-dione]"
10,90,"NC(=O)NNC(=O)c1ccc2c(c1)CCCC(c1ccc(Cl)cc1Cl)=C2c1ccc(O[C@H]2CCN(CCCF)C2)cc1 [Example 14, (S)-2-(8-(2,4-dichlorophenyl)-9-(4-((1-(3-fluoropropyl)pyrrolidin-3-yl)oxy)phenyl)-6,7-dihydro-5H-benzo[7]annulene-3-carbonyl)hydrazine-1-carboxamide]"
11,89,"COC(=O)c1ccc(-c2ccc3c(c2)CCCC(c2ccc(Cl)cc2Cl)=C3c2ccc(O[C@H]3CCN(CCCF)C3)cc2)cc1 [Example 56, Methyl (S)-4-(8-(2,4-dichlorophenyl)-9-(4-((1-(3-fluoropropyl)pyrrolidin-3-yl)oxy)phenyl)-6,7-dihydro-5H-benzo[7]annulen-3-yl)benzoate]"
12,78,"O=C(Nc1ccc2c(c1)CCCC(c1ccc(Cl)cc1Cl)=C2c1ccc(O[C@H]2CCN(CCCF)C2)cc1)C(F)(F)F [Example 47, (S)—N-(8-(2,4-dichlorophenyl)-9-(4-((1-(3-fluoropropyl)pyrrolidin-3-yl)oxy)phenyl)-6,7-dihydro-5H-benzo[7]annulen-3-yl)-2,2,2-trifluoroacetamide]"
13,79,"FCCCN1CC[C@H](Oc2ccc(C3=C(c4ccc(Cl)cc4Cl)CCCc4cc(-c5nncs5)ccc43)cc2)C1 [Example 9, (S)-2-(8-(2,4-dichlorophenyl)-9-(4-((1-(3-fluoropropyl)pyrrolidin-3-yl)oxy)phenyl)-6,7-dihydro-5H-benzo[7]annulen-3-yl)-1,3,4-thiadiazole]"
14,90,"CS(=O)(=O)NC(=O)c1ccc2c(c1)CCCC(c1ccc(Cl)cc1Cl)=C2c1ccc(O[C@H]2CCN(CCCF)C2)cc1 [Example 15, (S)-8-(2,4-dichlorophenyl)-9-(4-((1-(3-fluoropropyl)pyrrolidin-3-yl)oxy)phenyl)-(methylsulfonyl)-6,7-dihydro-5H-benzo[7]annulene-3-carboxamide]"
15,78,"FCCCN1CC[C@H](Oc2ccc(C3=C(c4ccc(Cl)cc4Cl)CCCc4cc(-c5cn[nH]c5)ccc43)cc2)C1 [Example 21, (S)-4-(8-(2,4-dichlorophenyl)-9-(4-((1-(3-fluoropropyl)pyrrolidin-3-yl)oxy)phenyl)-6,7-dihydro-5H-benzo[7]annulen-3-yl)-1H-pyrazole]"
